In patent US20040047865A1, “Compositions and their uses” (priority 1995, published 2004):

Tests used:
pig endothelial cells = details: infusion into baboons; Ye et al 1994; cited from earlier work
[1] = tested on: porcine endothelial cells; details: Neethling et al 1994; cited from earlier work
[2] = tested on: XNA IgG, normal porcine endothelial cells (PAE-68#4); assay: Two stage chromium release assay, inhibition of lysis by affinity-isolated IgG in the presence of sugars (FIG. 3); assay type: cell-based; details: IgG 80 μg/ml
Description: (§1) Briefly normal porcine endothelial cells were grown to confluence in 96well plates before being washed and labelled with ^51chromium. Excess label was removed and the cells were exposed to different concentrations of XNA. Unbound antibody was removed and 1/8 baby rabbit complement added for 1 hour at 37° C. Cell lysis was expressed as a percentage of the total counts associated with the endothelial cells, which could be detected in the medium after incubation of the cells with complement. […] Affinity-isolated IgM (10 μg/ml) or IgG (80 μg/ml) was incubated with endothelial cells as before in the presence of varying concentrations of four different sugar preparations. The cells were then washed and exposed to baby rabbit complement as previously described.

[3] = tested on: XNA IgM, normal porcine endothelial cells (PAE-68#4); assay: Two stage chromium release assay, inhibition of lysis by affinity-isolated IgM in the presence of sugars (FIG. 3); assay type: cell-based; details: IgM 10 μg/ml
Description: as §1

Compound | protection of pig endothelial cells from killing by serum of infused baboons (pig endothelial cells) | inhibition of the cytotoxic effects of human serum on porcine endothelial cells [1] | inhibition of cell lysis / IgG binding [2] | inhibition of cell lysis / XNA IgM binding [3]
OC[C@H]1O[C@H](OCC2O[C@@H](O)[C@H](O)[C@@H](O)[C@@H]2O)[C@H](O)[C@@H](O)[C@H]1O (stereo partly shown) [melibiose] | A level of protection was afforded | – | – | –
OC[C@H]1O[C@H](O[C@H]2[C@@H](O)[C@@H](CO)OC(O)[C@@H]2O)[C@H](O)[C@@H](O)[C@H]1O (stereo partly shown) [B-disaccharide, Galα1,3Gal] | – | best inhibitors | minimal difference | –
arabinogalactan | A level of protection was afforded | – | – | –
CC(=O)N[C@H]1C(O)O[C@H](CO)[C@@H](O[C@@H]2O[C@H](CO)[C@H](O)[C@H](O[C@H]3O[C@H](CO)[C@H](O)[C@H](O)[C@H]3O)[C@H]2O)[C@@H]1O (stereo partly shown) [B-trisaccharide, Galα1,3Galβ1,4GlcNAc] | – | best inhibitors | minimal difference | superior to B-disaccharide
